US20080261911A1, “Uses of diphenyl/diphenylamine carboxylic acids” (priority 2006, published 2008)

What was measured:
[1] = system: VEGF promoter constructs pVEGF1 and pVEGF2; experiment: VEGF promoter (pVEGF1/pVEGF2) luciferase transactivation in Panc-1 cells; type: cell-based; details: Panc-1 cells; for transactivation of pVEGF2, concentration dependence: 20-80 μM
Experimental: Transfection of Panc-1 cells with pVEGF1 and pVEGF2 and treatment with 50 μM ampiroxicam and tolfenamic acid (FIGS. 2A, 2B) or diclofenac sodium (FIGS. 2C, 2D) with pVEGF1 or pVEGF2 constructs. Cells were transfected with pVEGF1 or pVEGF2 treated with DMSO, 50 μM ampiroxicam, tolfenamic acid, or diclofenac sodium, and luciferase activity determined. Transfection of L3.6pl cells with pVEGF1 (FIG. 2E) or pVEGF2 constructs (FIG. 2F). […] Panc-1 cells were transfected with pVEGF2, treated with 20, 40, 60 or 80 μM ampiroxicam or tolfenamic acid, and luciferase determined. Results presented herein are means ±SE for three separate determinations per treatment group, and significant (p<0.05) decrease in luciferase activity is indicated by an asterisk.
(§1) Cells are cultured in 6-well plates in 2 ml of DME/F12 medium supplemented with 5% fetal bovine serum. After 16-20 hr when cells are 50-60% confluent, reporter gene constructs are transfected using LIPOFECTAMINE™ reagent (Invitrogen, Carlsbad, Calif.). The effects of the selective non-steroidal anti-inflammatory drugs on transactivation are investigated in Panc1 and L3.6pl cells co-transfected with different VEGF constructs (500 ng). […] For proteasome inhibitor experiments, cells will be co-treated with 2 μM lactacystin, and for electrophoretic mobility shift assay (EMSA), nuclear extracts from Panc1 and L3.6pl cells are isolated as described, and aliquots will be stored at −80° C. until used (Abdelrahim et al, 2004; Abdelrahim et al, 2005).
Previous studies have shown COX-2 inhibitors or small interfering RNAs for Sp proteins decreased vascular endothelial growth factor expression in colon and pancreatic cells (Abdelrahim et al, 2005; Baker et al, 2002; Masferrer et al, 2000; Bouwman et al, 2002). The effects of DMSO, 50 μM tolfenamic acid and 50 μM ampiroxicam on vascular endothelial growth factor expression were initially investigated in Panc-1 cells transfected with the pVEGF1 and pVEGF2 constructs, which contain −2018 to +50 and −131 to +54 VEGF promoter inserts, respectively (FIGS. 2A and 2B).

[2] = system: VEGF-B/VEGFR1 signaling (MAPK1/2 phosphorylation); experiment: VEGF-B activation of MAPK in L3.6pl cells; type: cell-based, human; details: 50 μM pretreatment for 36 hr, VEGF-B 5 or 10 min
Experimental: Cells were pretreated with DMSO, 50 μM ampiroxicam, or 50 μM tolfenamic acid for 36 hr; VEGF-B (50 ng/ml) was added for 5 or 10 min, and whole cell lysates were obtained and analyzed by Western blot.

VEGFR1 promoter = VEGFR1 promoter (pVEGFR1A-C) luciferase activity in Panc-1 cells; type: cell-based; details: 50 μM
Experimental: as §1, with “FIGS. 17A-17D show effects of tolfenamic acid on the VEGFR1 promoter and mRNA expression. Transfection with pVEGFR1-A (FIG. 17A), pVEGFR1-B (FIG. 17B), and pVEGFR1-C (FIG. 17C). Panc-1 cells were transfected with pVEGFR1 constructs, treated with DMSO, 50 μM ampiroxicam, or 50 μM tolfenamic acid, and luciferase activity was determined as described in Materials and Methods. […] Results are shown for a single experiment and similar data was obtained in replicate experiments. Cells” for “Cells”

Egr-1 protein = Egr-1 protein expression in Panc-1 cells, Western blot; type: cell-based; details: 50 μM, 48 h
Experimental: Cells are washed once with phosphate buffered saline PBS and collected by scraping in 200 μL of lysis buffer [50 mM HEPES, 0.5M sodium chloride, 1.5 mM magnesium chloride, 1 mM EGTA, 10% (v/v) glycerol, 1% Triton X-100, 5 μL/ml of Protease Inhibitor Cocktail (Sigma)]. The lysates from the cells are incubated on ice for 1 hr with intermittent vortexing followed by centrifugation at 40,000 g for 10 min at 4° C. Equal amounts of protein (60 μg) from each treatment group are diluted with loading buffer, boiled and loaded onto 10 and 12.5% SDS-polyacrylamide gel. For vascular endothelial growth factor immunoblots, 100 μg of protein are used. Samples are electrophoresed, transferred to membranes, and proteins detected by incubation with polyclonal primary antibodies Sp1, Sp3, Sp4, HDAC, VEGF (a-20), c-Met, surviving, VEGF, cleaved PARP, and β-tubulin (H-235) followed by blotting with appropriate horseradish peroxidase-conjugated secondary antibody as previously described (Abdelrahim et al, 2004). After autoradiography, band intensities are determined by a scanning laser densitometer (Sharp Electronics Corporation, Mahwah, N.J.) using ZERO-D SCANALYTICS software (Scanalytics Corporation, Billerica, Mass.).
The proximal region of the VEGFR1 promoter contains GC-rich and Egr-1 sites. […]

[3] = system: Sp protein binding to GC-rich VEGF promoter oligonucleotide; experiment: Gel mobility shift of nuclear extracts from Panc-1 cells with VEGF32P; type: cell-based; details: nuclear extracts of Panc-1 cells treated with 50 μM for 48 hr
Experimental: Vascular endothelial growth factor and VEGFR1 oligonucleotides are synthesized and annealed, and 5 pmol aliquots are 5′-end-labeled using T4 kinase and [y-^32P]ATP. After the reaction sample was incubated 20 min on ice, and antibodies against Sp1, Sp3, and Sp4 proteins are added and incubated another 20 min on ice. Protein-DNA complexes are resolved by 5% polyacrylamide gel electrophoresis as previously described (Abdelrahim et al, 2004; Abdelrahim et al, 2005, Abdelrahim et al, submitted 2005).
Panc1 or L3.6pl cells were treated with DMSO, 50 μM tolfenamic acid or 50 μM ampiroxicam for 48 hr. Nuclear extracts from these cells were isolated, incubated with VEGF^32P and analyzed in gel mobility shift assays.
The radiolabeled oligonucleotide contained a GC-rich region (−66 to −47) from the VEGF promoter that binds Sp proteins.

Structure (SMILES) | luciferase activity, pVEGF1 and pVEGF2 constructs ([1]; 50 μM) | luciferase activity, pVEGF2 ([1]; 50 μM, in presence or absence of lactacystin) | transactivation of pVEGF2, concentration dependence [1] | VEGF-B-induced phosphorylation of MAPK1/2 [2] | luciferase activity, pVEGFR1A, pVEGFR1B and pVEGFR1C (VEGFR1 promoter) | Egr-1 protein (Egr-1 protein) | Sp3 and Sp1/Sp4 retarded bands with VEGF32P [3]
CCOC(=O)OC(C)OC1=C(C(=O)Nc2ccccn2)N(C)S(=O)(=O)c2ccccc21 (stereo not shown) [ampiroxicam] | but not ampiroxicam, significantly decreased activities | did not affect luciferase activity | showed no effect | increased phosphorylation of MAPK1/2 | but not DMSO or ampiroxicam, decreased luciferase activity | unchanged in all treatment groups | retarded bands of similar intensity
Cc1c(Cl)cccc1Nc1ccccc1C(=O)O [tolfenamic acid] | significantly decreased activities |  | concentration-dependent decrease in transactivation | decreased phospho-MARK1/2 | decreased luciferase activity | unchanged in all treatment groups | retarded bands were decreased
